Assay results: US12139492B2 (Endotarget Inc., priority 2021, dated 2024)
Like-named read-outs stand apart in the source and are kept apart here.

Key:
Mino cells = test: Antiproliferative effect, MTS cell viability assay, Mino cells; assay type: cell-based; settings: Homo sapiens, Mino mantle cell lymphoma cells, read-out: IC50 (anti-proliferation) Mino cells
Summary of the method: (§1)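 MTS read-out, A490 of formazan from metabolically active cells; compound 0–10 μM (0, 0.001, 0.01, 0.1, 1, 10 μM), 72 h exposure.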

JeKo-1 cells = test: Antiproliferative effect, MTS cell viability assay, JeKo-1 cells; assay type: cell-based; settings: Homo sapiens; JeKo-1 mantle cell lymphoma cells; read-out: IC50 (anti-proliferation) JeKO-1 cells
Summary of the method: as §1

BTK = BTK (Homo sapiens, UniProt Q06187); test: Degradation of BTK protein in Namalwa cells (Western blot; DC50, Dmax); settings: for DC50: cell line not given
[1] = read-out: DC50 (BTK degradation), concentration giving 50% reduction of BTK expression level
[2] = read-out: Dmax (BTK degradation)

Chain of BTK (Q06187 whole entry): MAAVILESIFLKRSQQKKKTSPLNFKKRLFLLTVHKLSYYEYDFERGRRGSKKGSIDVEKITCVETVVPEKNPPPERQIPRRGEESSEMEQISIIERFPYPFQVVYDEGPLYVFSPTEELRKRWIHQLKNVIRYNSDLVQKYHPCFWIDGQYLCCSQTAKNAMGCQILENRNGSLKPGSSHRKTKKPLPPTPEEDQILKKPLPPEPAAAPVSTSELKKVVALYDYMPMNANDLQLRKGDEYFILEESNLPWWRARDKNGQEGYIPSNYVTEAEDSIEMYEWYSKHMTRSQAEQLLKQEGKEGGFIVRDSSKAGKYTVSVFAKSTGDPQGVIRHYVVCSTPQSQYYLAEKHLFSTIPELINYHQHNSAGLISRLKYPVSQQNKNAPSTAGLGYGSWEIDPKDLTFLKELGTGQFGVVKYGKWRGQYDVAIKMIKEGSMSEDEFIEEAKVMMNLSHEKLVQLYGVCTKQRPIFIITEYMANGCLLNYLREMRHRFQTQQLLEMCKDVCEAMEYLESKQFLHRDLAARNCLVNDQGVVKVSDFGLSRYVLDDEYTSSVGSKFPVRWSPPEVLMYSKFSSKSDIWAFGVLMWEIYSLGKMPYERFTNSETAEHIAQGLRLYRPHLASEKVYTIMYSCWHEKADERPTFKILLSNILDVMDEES

Compound	Dmax (BTK)	DC50 (BTK; BTK degradation)	DC50 (BTK; [1])	Dmax (BTK; [2])	IC50 (Mino cells; MINO)	IC50 (JeKo-1 cells)	IC50 (Mino cells)
Nc1ncnc2c1c(-c1ccc(Oc3ccccc3)cc1)nn2C1CCN(CC2CCN(CCCN3CCN(c4ccc5c(c4)C(=O)N(C4CCC(=O)NC4=O)C5=O)CC3)CC2)CC1 (centres unmarked) [Compound 207]	> 75%	> 50 nM	–	–	> 10000 nM	> 10000 nM	–
Nc1ncnc2c1c(-c1ccc(Oc3ccccc3)cc1)nn2C1CCN(C2CCN(CCN3CCC(c4ccc5c(c4)C(=O)N(C4CCC(=O)NC4=O)C5=O)CC3)CC2)CC1 (centres unmarked) [Compound 219, 5-(1-(2-(4-(4-amino-3-(4-phenoxyphenyl)-1H-pyrazolo[3,4-d]pyrimidin-1-yl)-[1,4′-bipiperidin]-1′-yl)ethyl)piperidin-4-yl)-2-(2,6-dioxopiperidin-3-yl)isoindoline-1,3-dione]	> 50%	10 to 50 nM	–	–	1000 to 10000 nM	1000 to 10000 nM	–
Nc1ncnc2c1c(-c1ccc(Oc3ccccc3)cc1)nn2C1CCN(C2CCN(C(=O)N3CCC(CN4CCN(c5ccc6c(c5)C(=O)N(C5CCC(=O)NC5=O)C6=O)CC4)CC3)CC2)CC1 (centres unmarked) [Compound 239, 5-(4-((1-(4-(4-amino-3-(4-phenoxyphenyl)-1H-pyrazolo[3,4-d]pyrimidin-1-yl)-[1,4′-bipiperidine]-1′-carbonyl)piperidin-4-yl)methyl)piperazin-1-yl)-2-(2,6-dioxopiperidin-3-yl)isoindoline-1,3-dione]	> 90%	10 to 50 nM	–	–	1000 to 10000 nM	< 1000 nM	–
Nc1ncnc2c1c(-c1ccc(Oc3ccccc3)cc1)nn2C1CCN(CCN2CCC(CN3CCN(c4ccc5c(c4)C(=O)N(C4CCC(=O)NC4=O)C5=O)CC3)C2)CC1 (centres unmarked) [Compound 455, 5-(4-((1-(2-(4-(4-amino-3-(4-phenoxyphenyl)-1H-pyrazolo(3,4-d)pyrimidin-1-yl)piperidin-1-yl)ethyl)pyrrolidin-3-yl)methyl)piperazin-1-yl)-2-(2,6-dioxopiperidin-3-yl)isoindoline-1,3-dione]	–	–	< 10 nM	> 90%	–	< 1000 nM	< 1000 nM
NC(=O)c1c(-c2ccc(Oc3ccccc3)cc2)nn2c1NCC[C@H]2C1CCN(C(=O)N2CCC(CCN3CCC(c4ccc5c(c4)CN(C4CCC(=O)NC4=O)C5=O)CC3)CC2)CC1 (stereo partly drawn) [Compound 302, (7S)-7-(1-(4-(2-(4-(2-(2,6-dioxopiperidin-3-yl)-1-oxoisoindolin-5-yl)piperidin-1-yl)ethyl)piperidine-1-carbonyl)piperidin-4-yl)-2-(4-phenoxyphenyl)-4,5,6,7-tetrahydropyrazolo[1,5-a]pyrimidine-3-carboxamide]	> 75%	10 to 50 nM	–	–	1000 to 10000 nM	1000 to 10000 nM	–
Nc1ncnc2c1c(-c1ccc(Oc3ccccc3)cc1)nn2[C@@H]1CCCN(C2CCN(C(=O)N3CCC(CCCC4CCN(c5ccc6c(c5)C(=O)N(C5CCC(=O)NC5=O)C6=O)CC4)CC3)CC2)C1 (stereo partly drawn) [Compound 195, 5-(4-(3-(1-((R)-3-(4-amino-3-(4-phenoxyphenyl)-1H-pyrazolo[3,4-d]pyrimidin-1-yl)-[1,4′-bipiperidine]-1′-carbonyl)piperidin-4-yl)propyl)piperidin-1-yl)-2-(2,6-dioxopiperidin-3-yl)isoindoline-1,3-dione]	> 75%	> 50 nM	–	–	> 10000 nM	1000 to 10000 nM	–
Nc1ncnc2c1c(-c1ccc(Oc3ccccc3)cc1)nn2C1CCN(C2CCN(C(=O)N3CCC(N4CCC(c5ccc6c(c5)C(=O)N(C5CCC(=O)NC5=O)C6=O)CC4)CC3)CC2)CC1 (centres unmarked) [Compound 235, 5-(1′-(4-(4-amino-3-(4-phenoxyphenyl)-1H-pyrazolo[3,4-d]pyrimidin-1-yl)-[1,4′-bipiperidine]-1′-carbonyl)-[1,4′-bipiperidin]-4-yl)-2-(2,6-dioxopiperidin-3-yl)isoindoline-1,3-dione]	> 90%	10 to 50 nM	–	–	1000 to 10000 nM	1000 to 10000 nM	–

Second part, led by results:

Dmax (BTK)	DC50 (BTK; BTK degradation)	DC50 (BTK; [1])	Dmax (BTK; [2])	Compound	IC50 (Mino cells; MINO)	IC50 (JeKo-1 cells)	IC50 (Mino cells)
> 75%	10 to 50 nM	–	–	NC(=O)c1c(-c2ccc(Oc3ccccc3)cc2)nn2c1NCCC2C1CCN(CC2CCN(C(=O)N3CCC(CN4CCC(c5ccc6c(c5)CN(C5CCC(=O)NC5=O)C6=O)CC4)CC3)CC2)CC1 (centres unmarked) [Compound 376, 7-(1-((1-(4-((4-(2-(2,6-dioxopiperidin-3-yl)-1-oxoisoindolin-5-yl)piperidin-1-yl)methyl)piperidine-1-carbonyl)piperidin-4-yl)methyl)piperidin-4-yl)-2-(4-phenoxyphenyl)-4,5,6,7-tetrahydropyrazolo[1,5-a]pyrimidine-3-carboxamide]	1000 to 10000 nM	1000 to 10000 nM	–
–	–	10 to 50 nM	> 75%	Nc1ncnc2c1c(-c1ccc(Oc3ccccc3)cc1)nn2[C@@H]1CCCN(C2CCN(CC3CCN(c4ccc(N5CCC(=O)NC5=O)cc4)CC3)CC2)C1 [Compound 528, (R)-1-(4-(4-((3-(4-amino-3-(4-phenoxyphenyl)-1H-pyrazolo[3,4-d]pyrimidin-1-yl)-[1,4′-bipiperidin]-1′-yl)methyl)piperidin-1-yl)phenyl)dihydropyrimidine-2,4(1H,3H)-dione]	1000 to 10000 nM	1000 to 10000 nM	–
> 75%	10 to 50 nM	–	–	NC(=O)c1c(-c2ccc(Oc3ccccc3)cc2)nn2c1NCC[C@H]2C1CCN(CC2CCN(CCC3CCN(c4ccc5c(c4)C(=O)N(C4CCC(=O)NC4=O)C5=O)CC3)CC2)CC1 (stereo partly drawn) [Compound 333, (7S)-7-(1-((1-(2-(1-(2-(2,6-dioxopiperidin-3-yl)-1,3-dioxoisoindolin-5-yl)piperidin-4-yl)ethyl)piperidin-4-yl)methyl)piperidin-4-yl)-2-(4-phenoxyphenyl)-4,5,6,7-tetrahydropyrazolo[1,5-a]pyrimidine-3-carboxamide]	1000 to 10000 nM	> 10000 nM	–
–	–	< 10 nM	> 90%	Nc1ncnc2c1c(-c1ccc(Oc3ccccc3)cc1)nn2C1CCN(CC2CN(CC3CCN(c4ccc5c(c4)CN(C4CCC(=O)NC4=O)C5=O)CC3)C2)CC1 (centres unmarked) [Compound 440]	< 1000 nM	1000 to 10000 nM	–
–	–	< 10 nM	> 90%	Nc1ncnc2c1c(-c1ccc(Oc3ccccc3)cc1)nn2[C@@H]1CCCN(C(=O)NCCN2CCN(c3ccc4c(c3)C(=O)N(C3CCC(=O)NC3=O)C4=O)CC2)C1 (stereo partly drawn) [Compound 524, (3R)-3-(4-amino-3-(4-phenoxyphenyl)-1H-pyrazolo[3,4-d]pyrimidin-1-yl)-N-(2-(4-(2-(2,6-dioxopiperidin-3-yl)-1,3-dioxoisoindolin-5-yl)piperazin-1-yl)ethyl)piperidine-1-carboxamide]	< 1000 nM	1000 to 10000 nM	–
–	–	< 10 nM	> 90%	Nc1ncnc2c1c(-c1ccc(Oc3ccccc3)cc1)nn2C1CCN(CCN2CCC(CSc3ccc4c(c3)CN(C3CCC(=O)NC3=O)C4=O)CC2)CC1 (centres unmarked) [Compound 470, 3-(5-(((1-(2-(4-(4-amino-3-(4-phenoxyphenyl)-1H-pyrazolo[3,4-d]pyrimidin-1-yl)piperidin-1-yl)ethyl)piperidin-4-yl)methyl)thio)-1-oxoisoindolin-2-yl)piperidine-2,6-dione]	< 1000 nM	1000 to 10000 nM	–
–	–	< 10 nM	> 90%	Nc1ncnc2c1c(-c1ccc(Oc3ccccc3)cc1)nn2[C@@H]1CCCN(C2CN(C(=O)N3CC(N4CCN(c5ccc6c(c5)C(=O)N(C5CCC(=O)NC5=O)C6=O)CC4)C3)C2)C1 (stereo partly drawn) [Compound 479, 5-(4-(1-(3-((R)-3-(4-amino-3-(4-phenoxyphenyl)-1H-pyrazolo[3,4-d]pyrimidin-1-yl)piperidin-1-yl)azetidin-1-carbonyl)azetidin-3-yl)piperazin-1-yl)-2-(2,6-dioxopiperidin-3-yl)isoindoline-1,3-dione]	1000 to 10000 nM	1000 to 10000 nM	–
–	–	10 to 50 nM	> 90%	Nc1ncnc2c1c(-c1ccc(Oc3ccccc3)cc1)nn2C1CCN(CCN2CCC(CN3CCC(c4ccc5c(c4)oc(=O)n5C4CCC(=O)NC4=O)CC3)CC2)CC1 (centres unmarked) [Compound 545, 3-(6-(1-((1-(2-(4-(4-amino-3-(4-phenoxyphenyl)-1H-pyrazolo[3,4-d]pyrimidin-1-yl)piperidin-1-yl)ethyl)piperidin-4-yl)methyl)piperidin-4-yl)-2-oxobenzo[d]oxazol-3(2H)-yl)piperidine-2,6-dione]	< 1000 nM	1000 to 10000 nM	–
–	–	10 to 50 nM	> 90%	Nc1ncnc2c1c(-c1ccc(Oc3ccccc3)cc1)nn2C1CCN(C2CCN(CCN3CCC(c4ccc(NC5CCC(=O)NC5=O)cc4)CC3)CC2)CC1 (centres unmarked) [Compound 579, 3-((4-(1-(2-(4-(4-amino-3-(4-phenoxyphenyl)-1H-pyrazolo[3,4-d]pyrimidin-1-yl)-[1,4′-bipiperidin]-1′-yl)ethyl)piperidin-4-yl)phenyl)amino)piperidine-2,6-dione]	< 1000 nM	< 1000 nM	–
> 90%	< 10 nM	–	–	NC(=O)c1c(-c2ccc(Oc3ccccc3)cc2)nn2c1NCCC2C1CCN(C2CCN(C(=O)N3CCC(CN4CCC(c5ccc6c(c5)C(=O)N(C5CCC(=O)NC5=O)C6=O)CC4)CC3)CC2)CC1 (centres unmarked) [Compound 355, 7-(1′-(4-((4-(2-(2,6-dioxopiperidin-3-yl)-1,3-dioxoisoindolin-5-yl)piperidin-1-yl)methyl)piperidine-1-carbonyl)-[1,4′-bipiperidin]-4-yl)-2-(4-phenoxyphenyl)-4,5,6,7-tetrahydropyrazolo[1,5-a]pyrimidine-3-carboxamide]	1000 to 10000 nM	1000 to 10000 nM	–
